# Experimental data: patent US20230417738A1, “Mass Spectrometric Determination of Cell Toxicity” (Bruker Daltonics GmbH & Co. KG, priority 2022, published 2023)
# System: cells of the human continuous cell line A549
# Type: cell-based
# Details: 24 h
# Text: The mass spectrometer 101 used was a non-spatial-resolution MALDI-ToF. Also, the matrix 29 was not true-to-position applied. Thus, the mass spectra 20 represent sum spectra of an entire sample spot 16 and have not been generated according to the invention. In addition, the mass spectra 20 are not spatially resolved. It is intended here, among other things, to clarify the cell-specific mass spectrometric signals 40, the cell-specific mass spectrometric signatures 41, the non-cell-specific mass spectrometric signals 55 and a possible determination of reference values. In particular, the mass spectrum 20 in FIG. 11 (b) is only an approximate example here, since a small residual number of animal cells 23, which were already present before the cultivation step S2 (cell seed), can generate largely weak cell-specific mass spectrometric signals 40. […] The animal cells 23 are cells of the continuous human cell line A549. The complex culture medium DMEN with 10% fetal calf serum (FCS) was used as culture medium. […]
# The animal cells 23 are also cells of the human continuous cell line A549. […] Since this example is a sum mass spectrum of the entire sample spot 16 not according to the invention, sporadic weak cell-specific mass spectrometric signals 40 may be detected in this example, which are largely absent when using a spatial resolution mass spectrometer 1. […]
compound,measurement,value
CCCCCCCCCCCCCC[N+](C)(C)C.[Cl-] [tetradecyltrimethylammonium chloride],proliferation of the animal cells in the presence of the cytotoxic factor,no proliferation of the animal cells 23 occurred
